ChEMBL document CHEMBL1140674, “Design and synthesis of bioactive adamantane spiro heterocycles” (Bioorg Med Chem Lett, 2007)

Columns and labels:
Trypanosoma brucei = assay: Antiparasitic activity against Trypanosoma brucei 221 blood stream form at pH 7.4; format: functional, organism-based
Influenza A virus = assay: Antiviral activity against influenza A/Hong Kong/7/87 (H3N2) in MDCK cells assessed as inhibition of virus-induced cytopathic effect by MTS assay; format: functional, organism-based
[1] = Cytotoxicity against MDCK cells assessed as changes in cell morphology; format: cell-based, Canis lupus familiaris; settings: dog

For `C1C2CC3CC1CC(C2)C31CN1` (centres undefined), the IC50 (Trypanosoma brucei) was greater than 30 µM, the EC50 (Influenza A virus; Influenza A virus, H3N2, MDCK) was greater than 5 µM and the MCC [1] was 25 µM.

Molecule `CN1CC12C1CC3CC(C1)CC2C3` (centres undefined) has an EC50 (Influenza A virus; Influenza A virus, H3N2, MDCK) greater than 4.5 µM and an MCC [1] of 23 µM.

With `C1CC2(N1)C1CC3CC(C1)CC2C3` (centres undefined) the EC50 (Influenza A virus; Influenza A virus, H3N2, MDCK) was 0.36 µM and the MCC [1] was 250 µM.

For `C1CC2(CCN1)C1CC3CC(C1)CC2C3`, the IC50 (Trypanosoma brucei) was 5.28 µM and the IC90 (Trypanosoma brucei) was 9.99 µM.

With `O=C1NC(=O)C2(C(=O)N1)C1CC3CC(C1)CC2C3` the IC50 (Trypanosoma brucei) was 20 µM.

For `C1C2CC3CC1CC(C2)C31CNC1`, the EC50 (Influenza A virus; Influenza A virus, H3N2, MDCK) was 0.33 µM and the MCC [1] was 113 µM.

For `CN1CCC12C1CC3CC(C1)CC2C3` (centres undefined), the IC50 (Trypanosoma brucei) was greater than 25 µM, the EC50 (Influenza A virus; Influenza A virus, H3N2, MDCK) was 0.59 µM and the MCC [1] was 50 µM.

`CN1CCC2(CC1)C1CC3CC(C1)CC2C3` gave an IC50 (Trypanosoma brucei) greater than 20 µM.

For `CN1CCC2(CC1)C1CC3CC(C1)CC2C3.Cl`, the EC50 (Influenza A virus; Influenza A virus, H3N2, MDCK) was 4.3 µM and the MCC [1] was 4 µM.

`C1CC2(CCN1)C1CC3CC(C1)CC2C3.Cl` gave an EC50 (Influenza A virus; Influenza A virus, H3N2, MDCK) of 0.16 µM and an MCC [1] of 17 µM.

Work on `NC12CC3CC(CC(C3)C1)C2` [AMANTADINE] yielded an IC50 (Trypanosoma brucei) greater than 130 µM, an EC50 (Influenza A virus; Influenza A virus, H3N2, MDCK) of 1.98 µM and an MCC [1] greater than 100 µM.

For `NC(=O)c1ncn([C@@H]2O[C@H](CO)[C@@H](O)[C@H]2O)n1` [RIBAVIRIN], the EC50 (Influenza A virus; mdck) was 8.68 µM and the MCC [1] was 20 µM.

Molecule `CC(N)C12CC3CC(CC(C3)C1)C2` (centres undefined) [RIMANTADINE] has an IC50 (Trypanosoma brucei) of 7.04 µM, an IC90 (Trypanosoma brucei) of 14 µM and an EC50 (Influenza A virus; Influenza A virus, H3N2, MDCK) of 0.362 µM. For the same molecule, the MCC [1] was greater than 100 µM.
